In patent US20080145372A1, “Bioreductively-Activated Prodrugs” (ANGIOGENE, PHARMACEUTICALS LIMITED, priority 2004, published 2008):

Key:
[1] = Pulse radiolysis: fragmentation of radical anions; conditions: prodrug 40 μM, N2O-saturated 50% aqueous 2-propanol, pH 7.4-9.0
Protocol: The rate of fragmentation of intermediate radical anions produced by one-electron reduction is an important determinant of bioreductive prodrug action and can be measured by pulse radiolysis. The magnitude of the rate constant of radical fragmentation indicates the ability of the prodrugs to deliver the drug under hypoxia. The radicals were generated by reduction of the parent prodrugs (40 μM) by the 2-propanol radical generated radiolytically in an N2O-saturated 50% aqueous 2-propanol buffered to pH 7.4-9.0 with potassium phosphate (4 mM). Experiments were performed with a 6 Me V linear accelerator to generate an electron pulse of around 500 ns.

| SMILES | First-order rate constant k for the decay of radical anions produced by pulse radiolysis [1] | melting point [°C] |
| --- | --- | --- |
| CC(OC(=O)Nc1ccn([C@@H]2O[C@H](CO)[C@@H](O)[C@@H]2O)c(=O)n1)c1ccc([N+](=O)[O-])cc1 (stereo partly drawn) [Example 11, N^4-(1-(4-nitrophenyl)ethoxycarbonyl)-1-β-D-arabinofuranosylcytosine] | 0.4 s⁻¹ | – |
| O=C(Nc1ccn([C@@H]2O[C@H](CO)[C@@H](O)C2(F)F)c(=O)n1)OCc1ccc([N+](=O)[O-])s1 [Example 6, N^4-(5-nitrothien-2-yl)methoxycarbonyl-2′,2′-difluoro-2′-deoxycytidine] | 20 s⁻¹ | 144 to 148 |
| O=C(Nc1ccn([C@@H]2O[C@H](CO)[C@@H](O)[C@@H]2O)c(=O)n1)OCc1ccc([N+](=O)[O-])o1 [Example 12, N^4-(5-nitrofuran-2-yl)methoxycarbonyl-1-β-D-arabinofuranosylcytosine] | 5.5 s⁻¹ | – |
| CC(OC(=O)Nc1ccn([C@@H]2O[C@H](CO)[C@@H](O)C2(F)F)c(=O)n1)c1ccc([N+](=O)[O-])s1 (stereo partly shown) [Example 3, N^4-(1-(5-nitrothien-2-yl)ethyl)oxycarbonyl-2′,2′-difluoro-2′-deoxycytidine] | 102 s⁻¹ | – |
| O=C(Nc1nc(F)nc2c1ncn2[C@@H]1O[C@H](CO)[C@@H](O)[C@@H]1O)OCc1ccc([N+](=O)[O-])s1 [Example 10, 2-fluoro-N^6-(5-nitrothien-2-yl)methoxycarbonyl-9-O-D-arabinofuranosyladenine] | 144 s⁻¹ | – |
| O=C(Nc1ccn([C@@H]2O[C@H](CO)[C@@H](O)[C@@H]2O)c(=O)n1)OCc1ccc([N+](=O)[O-])cc1 [N^4-(4-nitrophenyl)methoxycarbonyl-1-β-D-arabinofuranosylcytosine, reference compound] | too small to measure | – |
| O=C(Nc1ccn([C@@H]2O[C@H](CO)[C@@H](O)[C@@H]2O)c(=O)n1)OCc1ccc([N+](=O)[O-])s1 [Example 2, N^4-(5-nitrothien-2-yl)methoxycarbonyl-1-β-D-arabinofuranosylcytosine] | 12 s⁻¹ | – |
| CC(=O)O[C@@H]1[C@H](OC(C)=O)[C@@H](C)O[C@H]1n1cc(F)c(NC(=O)OCc2ccc([N+](=O)O)s2)nc1=O [Example 9, 5′-Deoxy-2′,3′-di-O-acetyl-5-fluoro-N^4-((5-nitrothien-2-yl)methoxycarbonyl)cytidine] | 22 s⁻¹ | – |
| CC(OC(=O)Nc1ccn([C@@H]2O[C@H](CO)[C@@H](O)[C@@H]2O)c(=O)n1)c1ccc([N+](=O)[O-])s1 (stereo partly drawn) [Example 1, N^4-(1-(5-nitrothien-2-yl)ethyl)oxycarbonyl-1-β-D-arabinofuranosylcytosine] | 49 s⁻¹ | – |
| CC(=O)OC[C@H]1O[C@@H](n2ccc(NC(=O)OC(C)c3ccc([N+](=O)[O-])s3)nc2=O)[C@@H](OC(C)=O)[C@@H]1OC(C)=O (stereo partly drawn) [Example 4, Tri-O-acetyl-N^4-(1-(5-nitrothien-2-yl)ethyl)oxycarbonyl-1-β-D-arabinofuranosylcytosine] | 245 s⁻¹ | – |
| O=C(Nc1ncnc2c1ncn2[C@@H]1O[C@H](CO)[C@@H](O)[C@@H]1O)OCc1ccc([N+](=O)[O-])s1 [Example 8, N^6-(5-nitrothien-2-yl)methoxycarbonyl-9-β-D-arabinofuranosyladenine] | 148 s⁻¹ | – |
| Cn1c(COC(=O)Nc2ccn([C@@H]3O[C@H](CO)[C@@H](O)C3(F)F)c(=O)n2)cnc1[N+](=O)[O-] [Example 5, N^4-(2-nitro-1-methylimidazol-5-yl)methoxycarbonyl-2′,2′-difluoro-2′-deoxycytidine] | 18 s⁻¹ | – |
